How the values were obtained:
[1] = system: ALOMY; assay: Pre-emergence herbicidal action; assay type: in vivo, Alopecurus myosuroides
Description: (§1) Seeds of monocotyledonous and dicotyledonous weed plants and crop plants are laid out in sandy loam soil in wood-fibre pots and covered with soil. The compounds of the invention, formulated in the form of wettable powders (WP) or as emulsion concentrates (EC), are then applied to the surface of the covering soil in the form of an aqueous suspension or emulsion at a water application rate equivalent to 600 to 800 l/ha, with addition of 0.2% wetting agent. After the treatment, the pots are placed in a greenhouse and kept under good growth conditions for the trial plants. The damage to the test plants is scored visually after a test period of 3 weeks by comparison with untreated controls (herbicidal activity in percent (%): 100% activity=the plants have died, 0% activity=like control plants). […] The tables below illustrate, in an illustrative manner, the post-emergence herbicidal action of the compounds of the invention, the herbicidal activity being stated in percent. In the experiments that follow, the herbicidal action of the compounds of the invention and that of the corresponding known racemic compounds closest from WO2012126932 and WO2018202535 were compared under the above-specified conditions by the pre-emergence and post-emergence method. The example numbers given in the tables relate to the compounds disclosed in the respective documents.

[2] = system: AMARE; assay: Pre-emergence herbicidal action; assay type: in vivo, Amaranthus retroflexus; settings: scored after 3 weeks
Description: as §1, with “percent.” for “percent. In the experiments that follow, the herbicidal action of the compounds of the invention and that of the corresponding known racemic compounds closest from WO2012126932 and WO2018202535 were compared under the above-specified conditions by the pre-emergence and post-emergence method. The example numbers given in the tables relate to the compounds disclosed in the respective documents.”

[3] = system: AVEFA; assay: Pre-emergence herbicidal action; assay type: in vivo, Avena fatua
Description: as §1

[4] = system: ECHCG; assay: Pre-emergence herbicidal action; assay type: in vivo, Echinochloa crus-galli; settings: scored after 3 weeks
Description: as §1, with “percent.” for “percent. In the experiments that follow, the herbicidal action of the compounds of the invention and that of the corresponding known racemic compounds closest from WO2012126932 and WO2018202535 were compared under the above-specified conditions by the pre-emergence and post-emergence method. The example numbers given in the tables relate to the compounds disclosed in the respective documents.”

[5] = system: MATIN; assay: Pre-emergence herbicidal action; assay type: in vivo, Matricaria inodora; settings: for Pre-emergence action against MATIN: scored after 3 weeks
Description: as §1

[6] = system: PHBPU; assay: Pre-emergence herbicidal action; assay type: in vivo, Pharbitis purpurea; settings: 80 g/ha, scored after 3 weeks
Description: as §1, with “percent.” for “percent. In the experiments that follow, the herbicidal action of the compounds of the invention and that of the corresponding known racemic compounds closest from WO2012126932 and WO2018202535 were compared under the above-specified conditions by the pre-emergence and post-emergence method. The example numbers given in the tables relate to the compounds disclosed in the respective documents.”

[7] = system: POLCO; assay: Pre-emergence herbicidal action; assay type: in vivo, Polygonum convolvulus; settings: 320 g a.i./ha, comparative experiment
Description: as §1

[8] = system: SETVI; assay: Pre-emergence herbicidal action; assay type: in vivo, Setaria viridis; settings: for Pre-emergence action against SETVI: scored after 3 weeks
Description: as §1

[9] = system: STEME; assay: Pre-emergence herbicidal action; assay type: in vivo, Stellaria media; settings: comparative experiment
Description: as §1

[10] = system: VERPE; assay: Pre-emergence herbicidal action; assay type: in vivo, Veronica persica; settings: for Herbicidal action against VERPE: comparative experiment; for Pre-emergence action against VERPE: scored after 3 weeks
Description: as §1

[11] = system: VIOTR; assay: Pre-emergence herbicidal action; assay type: in vivo, Viola tricolor; settings: 80 g/ha, scored after 3 weeks
Description: as §1, with “percent.” for “percent. In the experiments that follow, the herbicidal action of the compounds of the invention and that of the corresponding known racemic compounds closest from WO2012126932 and WO2018202535 were compared under the above-specified conditions by the pre-emergence and post-emergence method. The example numbers given in the tables relate to the compounds disclosed in the respective documents.”

[12] = system: CYPES; assay: Pre-emergence herbicidal action; assay type: in vivo, Cyperus esculentus; settings: 20 g a.i./ha, comparative experiment
Description: as §1

[13] = system: ZEAMX; assay: Pre-emergence damage to crop plants; assay type: in vivo, Zea mays; settings: 320 g a.i./ha, comparative experiment
Description: as §1

[14] = system: AMARE; assay: Post-emergence herbicidal action; assay type: in vivo, Amaranthus retroflexus; settings: assessed after about 3 weeks
Experimental: (§2) Seeds of monocotyledonous and dicotyledonous weed and crop plants are laid out in sandy loam soil in wood-fibre pots, covered with soil and cultivated in a greenhouse under good growth conditions. 2 to 3 weeks after sowing, the test plants are treated at the one-leaf stage. The compounds of the invention, formulated in the form of wettable powders (WP) or as emulsion concentrates (EC), are then sprayed onto the green parts of the plants in the form of an aqueous suspension or emulsion at a water application rate equating to 600 to 800 l/ha, with addition of 0.2% wetting agent. After the test plants have been left to stand in the greenhouse under optimal growth conditions for about 3 weeks, the action of the preparations is assessed visually in comparison to untreated controls (herbicidal action in percent (%): 100% activity=the plants have died, 0% activity=like control plants). […] The tables below illustrate, in an illustrative manner, the post-emergence herbicidal action of the compounds of the invention, the herbicidal activity being stated in percent.

[15] = system: ECHCG; assay: Post-emergence herbicidal action; assay type: in vivo, Echinochloa crus-galli; settings: assessed after about 3 weeks
Experimental: as §2, with “percent. In the experiments that follow, the herbicidal action of the compounds of the invention and that of the corresponding known racemic compounds closest from WO2012126932 and WO2018202535 were compared under the above-specified conditions by the pre-emergence and post-emergence method. The example numbers given in the tables relate to the compounds disclosed in the respective documents.” for “percent.”

[16] = system: MATIN; assay: Post-emergence herbicidal action; assay type: in vivo, Matricaria inodora; settings: assessed after about 3 weeks
Experimental: as §2

[17] = system: PHBPU; assay: Post-emergence herbicidal action; assay type: in vivo, Pharbitis purpurea; settings: 20 g/ha, assessed after about 3 weeks
Experimental: as §2

[18] = system: SETVI; assay: Post-emergence herbicidal action; assay type: in vivo, Setaria viridis; settings: for Post-emergence action against SETVI: assessed after about 3 weeks
Experimental: as §2, with “percent. In the experiments that follow, the herbicidal action of the compounds of the invention and that of the corresponding known racemic compounds closest from WO2012126932 and WO2018202535 were compared under the above-specified conditions by the pre-emergence and post-emergence method. The example numbers given in the tables relate to the compounds disclosed in the respective documents.” for “percent.”

[19] = system: STEME; assay: Post-emergence herbicidal action; assay type: in vivo, Stellaria media; settings: 5 g a.i./ha, comparative experiment
Experimental: as §2, with “percent. In the experiments that follow, the herbicidal action of the compounds of the invention and that of the corresponding known racemic compounds closest from WO2012126932 and WO2018202535 were compared under the above-specified conditions by the pre-emergence and post-emergence method. The example numbers given in the tables relate to the compounds disclosed in the respective documents.” for “percent.”

[20] = system: VERPE; assay: Post-emergence herbicidal action; assay type: in vivo, Veronica persica
Experimental: as §2, with “percent. In the experiments that follow, the herbicidal action of the compounds of the invention and that of the corresponding known racemic compounds closest from WO2012126932 and WO2018202535 were compared under the above-specified conditions by the pre-emergence and post-emergence method. The example numbers given in the tables relate to the compounds disclosed in the respective documents.” for “percent.”

[21] = system: VIOTR; assay: Post-emergence herbicidal action; assay type: in vivo, Viola tricolor; settings: assessed after about 3 weeks
Experimental: as §2, with “percent. In the experiments that follow, the herbicidal action of the compounds of the invention and that of the corresponding known racemic compounds closest from WO2012126932 and WO2018202535 were compared under the above-specified conditions by the pre-emergence and post-emergence method. The example numbers given in the tables relate to the compounds disclosed in the respective documents.” for “percent.”

[22] = system: CYPES; assay: Post-emergence herbicidal action; assay type: in vivo, Cyperus esculentus; settings: 20 g a.i./ha, comparative experiment
Experimental: as §2, with “percent. In the experiments that follow, the herbicidal action of the compounds of the invention and that of the corresponding known racemic compounds closest from WO2012126932 and WO2018202535 were compared under the above-specified conditions by the pre-emergence and post-emergence method. […]” for “percent.”

[23] = 20 g a.i./ha, comparative experiment
[24] = 5 g a.i./ha, comparative experiment

With `Cc1nnc(NC(=O)c2ccc(C(F)(F)F)c([S+](C)[O-])c2Cl)o1` (stereo in doubt) [Example I-5, 2-chloro-N-(5-methyl-1,3,4-oxadiazol-2-yl)-3-[(S)-methylsulfinyl]-4-(trifluoromethyl)benzamide] the “Herbicidal action against ALOMY” value [1, 23] was 60%, the “Pre-emergence action against ALOMY” value ([1]; 80 g/ha, scored after 3 weeks) was 80% and the “Pre-emergence action against AMARE” value ([2]; 20 g/ha) was 90%. The “Pre-emergence action against AMARE” value ([2]; 80 g/ha) was 100%, the “Herbicidal action against AVEFA” value [3, 23] was 90% and the “Pre-emergence action against AVEFA” value ([3]; 80 g/ha, scored after 3 weeks) was 80%. For the same compound, the “Pre-emergence action against ECHCG” value ([4]; 20 g/ha) was 100%, the “Pre-emergence action against ECHCG” value ([4]; 80 g/ha) was 100% and the “Herbicidal action against MATIN” value [5, 23] was 90%. The “Pre-emergence action against MATIN” value ([5]; 20 g/ha) was 80%, the “Pre-emergence action against MATIN” value ([5]; 80 g/ha) was 100% and the “Pre-emergence action against PHBPU” value [6] was 100%. For the same compound, the “Herbicidal action against POLCO” value [7] was 80%, the “Pre-emergence action against SETVI” value ([8]; 5 g/ha) was 80% and the “Herbicidal action against SETVI” value [8, 23] was 100%. For the same compound, the “Pre-emergence action against SETVI” value ([8]; 20 g/ha) was 100%, the “Pre-emergence action against SETVI” value ([8]; 80 g/ha) was 100% and the “Herbicidal action against STEME” value ([9]; 20 g a.i./ha) was 100%. For the same compound, the “Herbicidal action against STEME” value ([9]; 80 g a.i./ha) was 100%, the “Herbicidal action against STEME” value ([9]; 320 g a.i./ha) was 100% and the “Herbicidal action against VERPE” value ([10]; 20 g a.i./ha) was 30%. For the same compound, the “Pre-emergence action against VERPE” value ([10]; 20 g/ha) was 80%, the “Herbicidal action against VERPE” value ([10]; 80 g a.i./ha) was 100% and the “Pre-emergence action against VERPE” value ([10]; 80 g/ha) was 100%. The “Pre-emergence action against VIOTR” value [11] was 100%, the “Herbicidal action against CYPES” value [12] was 90% and the “Herbicidal action against ZEAMX” value [13] was 40%. For the same compound, the “Post-emergence action against AMARE” value ([14]; 5 g/ha) was 100%, the “Post-emergence action against AMARE” value ([14]; 20 g/ha) was 100% and the “Post-emergence action against ECHCG” value ([15]; 5 g/ha) was 90%. For the same compound, the “Post-emergence action against ECHCG” value ([15]; 20 g/ha) was 100%, the “Post-emergence action against MATIN” value ([16]; 5 g/ha) was 80% and the “Post-emergence action against MATIN” value ([16]; 20 g/ha) was 90%. For the same compound, the “Post-emergence action against PHBPU” value [17] was 90%, the “Herbicidal action against SETVI” value [18, 24] was 100% and the “Post-emergence action against SETVI” value ([18]; 5 g/ha) was 80%. The “Post-emergence action against SETVI” value ([18]; 20 g/ha) was 100%, the “Herbicidal action against STEME” value [19] was 80% and the “Herbicidal action against VERPE” value [20, 24] was 40%. For the same compound, the “Post-emergence action against VERPE” value ([20]; 20 g/ha, assessed after about 3 weeks) was 90%, the “Post-emergence action against VIOTR” value ([21]; 5 g/ha) was 100% and the “Post-emergence action against VIOTR” value ([21]; 20 g/ha) was 100%. For the same compound, the “Herbicidal action against CYPES” value [22] was 80%.

Reference: patent US20240174624A1, “CHIRAL N-(1,3,4-OXADIAZOLE-2-YL)PHENYL CARBOXYLIC ACID AMIDES AND THEIR USE AS HERBICIDES” (Bayer Aktiengesellschaft, priority 2021, published 2024)
